{
  "source": "patent US20250352524A1",
  "about": "“PREVENTION OF METASTATIC OUTGROWTH USING TEAD INHIBITORS” (Georgetown University, priority 2024, published 2025)",
  "system": "naïve C57/BL6 mice",
  "assay": "Tumor naïve C57/BL6 mice treated for two weeks, lung immune microenvironment",
  "format": "in vivo",
  "experimental": "To determine iTEAD effect on lung immune microenvironment at steady state, naïve C57/BL6 mice were treated with iTEAD. […] In the absence of cancer cells in these naïve mice, no change in CD8+ T-cells was observed between treatment groups. […] On the cancer cell front, TEAD inhibition had no effect on proliferation yet reduced migration and 3D spheroid collective invasion of breast cancer cells in vitro.\nTo investigate how TEAD inhibition influences the immune microenvironment in the normal lung, C57BL/6 mice were treated with 30 mg/kg of VT107 or vehicle control via oral gavage for 2 weeks. Lung, spleen and blood tissues were harvested for immune cell analysis and RNA-sequencing (FIG. 9, Panel G). […] RNA-seq data was analyzed by Cibersortx (Chen et al., 2018) to deconvolute the abundance of immune cell types in the lung tissue using single-cell RNA-seq datasets.\nDue to the shifts in immune signaling observed in the lung tissue upon TEAD inhibition (FIG. 9), immune cell populations were first analyzed by flow cytometry in the lungs and spleens of tumor naïve mice. Consistent with the Cibersort analysis of RNA-seq data, there was a decrease in the monocytes population and an increase in the tissue-resident alveolar macrophages (AM) (FIG. 10, Panel A). […] Next, it was sought to determine the specific effects of iTEAD treatment on lung resident versus bone-marrow derived macrophages, as the dynamics of these cell populations are crucial for the establishment of the metastatic niche (Ries et al., 2014; Qian et al., 2011). Macrophages were retrieved from the lungs by isolating F4/80+ cells, a specific marker for murine macrophages, by FACS (fluorescence-activated cell sorting) as well as bone marrow-derived macrophages from the femurs of naïve C57BL/6 mice that were then differentiated in vitro using macrophage colony stimulating factor (M-CSF). Macrophages were treated with 1 μM of VT107 for 24 hours before the conditioned media was collected and analyzed on a cytokine array. […] There was no change in the level of the other cytokines detected (FIG. 10, Panel B).\nSingle cell suspensions were washed 2× with PBS. Cells were then stained with Zombie NIR Fixable Viability Kit (Biolegend, 423106) or Zombie Aqua Fixable Viability Kit (Biolegend, 423102) for 20 minutes at room temperature, to identify dead cells. Next, cells were washed with FACS buffer (1×PBS+2% FBS) and incubated with conjugated antibodies binding to cell surface proteins, at 4 °C for 30 minutes. A combination of the following antibodies were used: anti-CD45-Spark Blue 550 (Biolegend, 103166), anti-CD3-PercP/Cy5.5 (Biolegend, 100217), anti-CD4-Pacific Blue (Biolegend, 116007), anti-CD8-BV785 (Biolegend, 100750), anti-CD25-BV650 (Biolegend, 102038), anti-CD45-AF700 (Biolegend, 103128), anti-CD45R (B220) (Biolegend, 563103), anti-SiglecF-APC (Miltenyi Biotec, 130-102-241), anti-CD11b-PE/Dazzle (Biolegend, 108745), anti-CD11c-FITC (Biolegend, 117306), anti-F480-PE/Cy7 (Biolegend, 123114), anti-Ly6G-BV785 (Biolegend, 127645), anti-Ly6C-BV570 (Biolegend, 128030), anti-CD206-AF700 (Biolegend, 141734), and anti-CD86-AF488 (Biolegend, 105018). Cells were fixed and permeabilized using the BD Cytofix/Cytoperm Fixation/Permeabilization Kit (BD Biosciences, #554714) prior to incubation with anti-Foxp3-AF647 (Biolegend, 126407), anti-Gata3-PE (Biolegend, 653803), anti-RORy t-BV421 (Biolegend, 562894), and anti-T-bet-BV711 (BD Biosciences, 4B10). After staining, cells were washed 2× and subjected to flow cytometry analysis using the BD FACSymphony Δ3 flow cytometer analyzer. Results were analyzed using FCS Express 7 Research (De Novo Software).\nThe total RNA from tissue or cell lines was extracted using RNeasy Mini Kit (Qiagen, #74104) according to the manufacturer's instructions. Total RNA integrity was assessed with the Agilent 2100 Bioanalyzer. The library preparation and next-generation sequencing (NGS) were performed at Novogene Corporation Inc. (Sacramento, CA, USA). […]",
  "key": {"[1]": {"conditions": "30 mg/kg oral gavage 2 weeks, flow cytometry"}},
  "note": "Entries after “also recorded” stand apart in the source; their conditions may differ.",
  "data": [
    {"substance": "VT107", "values": [
      {"measurement": "alveolar macrophages in the lungs", "setting": "[1]", "value": "increase"},
      {"measurement": "infiltrating monocytes/macrophages in the lungs", "setting": "[1]", "value": "decrease"},
      {"measurement": "alveolar macrophages in the lungs", "setting": "30 mg/kg oral gavage 2 weeks, flow cytometry, listed as iTEAD", "value": "robust increase; also recorded: shift"},
      {"measurement": "leukocytes fraction", "setting": "Cibersortx of RNA-seq", "value": "slight increase"},
      {"measurement": "monocyte fraction in lung tissue", "setting": "Cibersortx of RNA-seq", "value": "reduced"},
      {"measurement": "myeloid cells' fraction including tissue resident macrophages", "setting": "Cibersortx of RNA-seq", "value": "expanded"},
      {"measurement": "IL12 signaling pathway in lung", "setting": "Ingenuity pathway analysis", "value": "increase"},
      {"measurement": "inflammation (cytokine storm, S100 family, wound healing and fibrosis signaling pathways) in lung", "setting": "Ingenuity pathway analysis", "value": "overall reduction"},
      {"measurement": "lung gene expression, downregulated compared to upregulated genes", "setting": "RNA-sequencing", "value": "significantly higher number of downregulated genes"},
      {"measurement": "spleen gene expression", "setting": "RNA-sequencing", "value": "minimal changes"},
      {"measurement": "CD3+ cells in tumor naïve lungs", "setting": "flow cytometry", "value": "increase"},
      {"measurement": "CD4+ or CD8+ T-cell populations in tumor naïve lungs", "setting": "flow cytometry", "value": "not specifically"},
      {"measurement": "total macrophages, dendritic cells, eosinophils or neutrophils", "setting": "flow cytometry, analyzed tissues", "value": "No significant change"},
      {"measurement": "alveolar macrophages and infiltrating monocytes/macrophages in spleen or blood", "setting": "flow cytometry, listed as iTEAD", "value": "no change"},
      {"measurement": "CD8+ T-cells", "setting": "naïve mice, between treatment groups", "value": "no change"}
    ]}
  ]
}
